The source of these data is patent US4450173A, “Compounds and method for treatment or prophylaxis of cardiac disorders” (American Hospital Supply Corporation, priority 1982, dated 1984).

A short description of series [1]: Disappearance in vitro in dog liver homogenate. Type of series: in vitro ADME. The conditions noted are these: 50 μg in 1 mL added to 1 mL of 33% (w/v) dog liver homogenate, 37° C.; read-out: T1/2 Dog Liver Homogenate. As for the experimental part: (§1) The rate of disappearance of a compound is expressed as the half-life (T1/2), which is the time period in which one-half of the initial amount of compound tested disappears. In each experiment, 1 mL of a solution containing 50 μg of the test compound was added to 1 mL of whole blood or 1 mL of a 33% (w/v) liver homogenate. […] At the designated time periods, the test mixtures were removed from the incubator and transferred to a 0° C. ice bath. Acetonitrile (2 mL) was immediately added and the mixtures were mixed to stop enzymatic hydrolysis. Zero time samples were prepared by adding 2 mL of acetonrile to denature the proteins prior to addition of the test compounds. […] The half life of each test compound was determined graphically by plotting the decrease in concentration as a function of time.

The target in series [2] is guinea pig tracheal strips (Cavia porcellus, UniProt Q8K4Z4). Briefly: cell-based. The conditions noted are these: guinea pig trachea, carbachol tension, isoproterenol, 60 minute incubation, pA2 = -log KB. The class given is cell-based. As to the method: Each tissue was suspended between a fixed glass rod and a Statham® Universal Transducer connected to a Beckman® recorder. Atria were allowed to beat spontaneously under a loading tension of approximately 0.5 gm. Intrinsic depressant for stimulant activity was determined for each compound by progressively increasing concentrations in the tissue baths at 60-minute intervals. Tissues were not washed between increments. […] Changes in rate in response to isoproterenol were measured in the absence and presence of test compounds. Spiral strips of guinea pig trachea were suspended under 5 gm resting tension and incubated with phentolamine, tropolone and cocaine. Active tension was generated by addition of carbachol (3.0×10^-7 M) and decreases in tension in response to isoproterenol were quantitated. Cumulative concentration-response curves were produced with isoproterenol both before and after 60 minute incubation of test compounds with atria and trachea. The blocking potency of test compounds was estimated by computing pA2 values (-log KB) by the method of Furchgott, The Pharmacological Differentiation of Adrenergic Receptors, Ann. […] A ratio greater than one indicates cardioselectivity.
Sequence of guinea pig tracheal strips (Q8K4Z4 whole entry): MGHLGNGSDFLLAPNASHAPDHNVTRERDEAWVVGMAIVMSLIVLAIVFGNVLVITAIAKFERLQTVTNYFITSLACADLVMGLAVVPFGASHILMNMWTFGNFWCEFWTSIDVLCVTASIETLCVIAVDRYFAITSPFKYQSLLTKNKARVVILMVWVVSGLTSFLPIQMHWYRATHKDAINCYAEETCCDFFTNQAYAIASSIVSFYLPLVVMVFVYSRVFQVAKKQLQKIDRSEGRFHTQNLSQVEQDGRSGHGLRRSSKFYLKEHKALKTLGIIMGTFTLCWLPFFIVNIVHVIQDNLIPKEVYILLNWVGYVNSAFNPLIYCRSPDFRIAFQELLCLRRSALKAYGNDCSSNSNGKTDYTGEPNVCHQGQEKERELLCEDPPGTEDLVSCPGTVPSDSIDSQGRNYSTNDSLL

For series [3], the system named is heart rate response to isoproterenol (β-receptor mediated tachycardia). Briefly: Duration of β-blockade in vivo in anesthetized dogs, 40-minute infusion. The arrangement: species or system dog. The conditions noted are these: for ED50: Canis lupus familiaris, iv, 40 min, read-out: Potency (mg/kg/40 min); for 80% Recovery Time: after 40-minute infusion, normalized to 50% inhibition, dogs. As to the method:
(§2) The duration of β-blockade was determined in vivo using pentobartital-anesthetized dogs instrumented for measurement of heart rate using a Beckman® cardiotachometer triggered electronically by a phasic aortic blood pressure signal. Both vagus nerves were severed in the cervical region and the animals were mechanically ventilated. Two experimental designs were used. The first employed a 40-minute infusion of test compound and the second used a 3-hour infusion of test compound. In the 40-minute model, isoproterenol was infused into a foreleg vein at the rate of 0.5 μg/kg/min to induce a β-receptor mediated tachycardia. Various doses of test compound are then infused into a femoral vein over a period of 40 minutes. This infusion was then terminated and recovery from blockade was quantitated. […] This cumulative dose is expressed as mg/kg and is an indication of potency. The time period required for 80% recovery of heart rate response for each dose of test drug was also measured to quantitate duration of action. […] Test compounds were dissolved in 0.9% NaCl and infused at a rate of 0.05 mL/kg/min or less. In the 3-hour infusion model, bolus doses of isoproterenol (0.4 μg/kg) were used to assess the degree of β-blockade and recovery from β-blockade after termination of the infusion. The doses were spaced at 10-minute intervals and were given before, during and following the infusion of test compounds. The infusion rate was adjusted so that at the end of the 3-hour infusion period the degree of isoproterenol inhibition averaged about 50% of control.

Series [4] concerns guinea pig right atria and guinea pig tracheal strips. Briefly: Cardioselectivity, KB tracheal/KB atrial. The class given is cell-based. As for the experimental part: Several of the compounds of the present invention were tested for β-blocking activity in vitro using guinea pig right atria and guinea pig tracheal strips mounted in a tissue bath containing oxygenated (95% O2 -5% CO2) Krebs physiological salt solution at 37° C. Each tissue was suspended between a fixed glass rod and a Statham® Universal Transducer connected to a Beckman® recorder. Atria were allowed to beat spontaneously under a loading tension of approximately 0.5 gm. Intrinsic depressant for stimulant activity was determined for each compound by progressively increasing concentrations in the tissue baths at 60-minute intervals. Tissues were not washed between increments. […]. Changes in rate in response to isoproterenol were measured in the absence and presence of test compounds. Spiral strips of guinea pig trachea were suspended under 5 gm resting tension and incubated with phentolamine, tropolone and cocaine. Active tension was generated by addition of carbachol (3.0×10^-7 M) and decreases in tension in response to isoproterenol were quantitated. Cumulative concentration-response curves were produced with isoproterenol both before and after 60 minute incubation of test compounds with atria and trachea. The blocking potency of test compounds was estimated by computing pA2 values (-log KB) by the method of Furchgott, The Pharmacological Differentiation of Adrenergic Receptors, Ann. N.Y. Acad. Sci.; 139: 553-570 (1967). Comparison of blockade of right atrial and tracheal responses to isoproterenol permitted assessment of cardioselectivity of test compounds; […]. A ratio greater than one indicates cardioselectivity. […]

A short description of series [5]: Disappearance in vitro in human whole blood. The class given is in vitro ADME. The conditions noted are these: 50 μg in 1 mL added to 1 mL human whole blood, 37° C.; read-out: T1/2 Human Whole Blood. As for the experimental part: as §1
Series [6] in a line: Disappearance in vitro in dog whole blood. The class given is in vitro ADME. Conditions: 50 μg in 1 mL added to 1 mL dog whole blood, 37° C.; read-out: T1/2 Dog Whole Blood. As for the experimental part: as §1
Series [7] concerns heart rate response to isoproterenol. Briefly: Duration of β-blockade in vivo in anesthetized dogs, 3-hour infusion. More on the design: species or system dog. Conditions: for ED50: Canis lupus familiaris, iv, 3-hour infusion, read-out: Potency (mg/kg/180 min); for ED50 / % I (Percent inhibition of heart rate response to isoproterenol): bolus isoproterenol 0.4 μg/kg; for 80% Recovery Time: after 3-hour infusion; for % I (Percent inhibition of heart rate response to isoproterenol): end of 3-hour infusion. As for the experimental part: as §2

The mark [8] stands for this setting: ratio KB tracheal/KB atrial, greater than one indicates cardioselectivity.

Read-outs that look alike come from different tables or passages of the source.

In the case of `CCOC(=O)CCCCNCC(O)COc1ccccc1C` (centres unmarked) [XII], the half-life came out at 8.8 ± 6 min in series [1], 1.55 ± 0.5 h in series [5] and 2.53 ± 1.18 h in series [6]. In addition, the “pA2 Trachea” value in series [2] turned out to be 7.4. For the same molecule, in series [3], the ED50 was 6.8 ± 3.7 mg/kg. In addition, the “80% Recovery Time” value in series [3] stood at 11 ± 2 min. In series [4], the Cardioselectivity is 2.5.
For the molecule `CCOC(=O)CCNCC(O)COc1cccc(Cl)c1` (centres unmarked) [XXII], the half-life in series [1] is 3 ± 3 min. Further, the “pA2 Trachea” value in series [2] is on record as 6.7. Also, the Cardioselectivity in series [4] (setting [8]) was found to be 5. Further, in series [7], the ED50 stood at 8.5 mg/kg, the “80% Recovery Time” value is more than 60 min and the “% I (Percent inhibition of heart rate response to isoproterenol)” value came out at 77%. Also, in series [5], the half-life is 1.97 ± 0.433 h. The half-life in series [6] was determined as 0.667 ± 0.25 h.
As to `CCOC(=O)CCNCC(O)COc1ccccc1Cl` (centres unmarked) [XXI], the figures for the half-life in series [1], in series [5] and in series [6] were 4 ± 3 min, 2.12 ± 0.833 h and 1.23 ± 0.35 h, respectively. In addition, in series [2], the “pA2 Trachea” value worked out at 6.6. For the same molecule, in series [4] (setting [8]), the Cardioselectivity was found to be 6. In addition, in series [7], the ED50 was 10.9 mg/kg. The “80% Recovery Time” value in series [7] was more than 60 min. The “% I (Percent inhibition of heart rate response to isoproterenol)” value in series [7] is reported as 77%.
As to `CCOC(=O)CCNCC(O)COc1ccc(OC)cc1` (centres unmarked) [XXV], the half-life in series [1] is 4 ± 2.5 min; in series [5], 2.63 ± 0.133 h; in series [6] it was more than 3 h. Besides, the ED50 in series [3] is 17.2 ± 1.2 mg/kg. The “80% Recovery Time” value in series [3] came to 11 ± 2 min.
Regarding `CCOC(=O)CCNCC(O)COc1ccccc1C` (centres unmarked) [X], the half-life in series [1] was 3 ± 1 min; in series [5], 2.58 ± 0.15 h; in series [6] it was 3 h. For the same molecule, the “pA2 Trachea” value in series [2] came out at 7.4. Also, the results for the ED50 in series [3] and in series [7] were 0.99 ± 0.27 mg/kg and 6.8 mg/kg, respectively. Moreover, the “80% Recovery Time” value was 14 ± 2 min in series [3] and more than 60 min in series [7]. For the same molecule, the Cardioselectivity in series [4] (setting [8]) worked out at 1. Further, the “% I (Percent inhibition of heart rate response to isoproterenol)” value in series [7] was determined as 69 ± 5%.
